“Also recorded” adds a separate entry of the source.

Experiment [1] can be described thus: Microstructural and crystallographic analysis of the synthesized minerals (SEM, TEM, XRD). Particulars: for mineral morphology: SEM/TEM of minerals formed in solution with peptide; for crystal phase of the mineral formed (XRD): XRD of minerals formed in solution; for amount of radiating crystalline blade-like particles emanating from the spherulites: compared to weak binders and no peptide control. The protocol:
(§1) For the mineralization experiments, mineralization solutions containing 24 mM Ca^2+ and 14.4 mM β-GP and 0.4 mM peptide was prepared in 25 mM Tris-HCl buffer (pH 7.4). A mineralization solution containing no peptide was prepared as the negative control. Mineralization reactions were commenced by adding bacterial AP to the solution at a final concentration of 1.4×10^−6 g/mL. Subsequent mineral formation kinetics was monitored by continuous measuring of absorbance at 820 nm wave length using a Tecan Safire microplate reader (Tecan Trading AG, Switzerland) as well as by periodic assays of calcium ions throughout the reaction. For periodic assays of calcium and phosphate, 10 μL of the reaction solution was collected at 0.25-, 0.5-, 1- and 1.5-hr. The calcium concentration in the solutions was determined using QuantiChrome Calcium Assay Kit (Bioassays, U.S.A.). All mineralization reactions were carried out at 37° C. Samples for electron microscopy analysis were prepared by placing a 10 μL aliquot from the reaction solution onto a carbon coated TEM grid. After 1 min, liquid on the TEM grid was carefully wicked away and the grids were vacuum-dried for 5 min. The dried grids were stored in a desiccated container until analyzed. SEM imaging was performed at 10 kV using a JSM 7000F (JEOL, Japan) SEM in secondary electron imaging mode. TEM imaging and electron diffraction analysis were performed using an EMS 420T TEM (FEI, Inc., USA; formerly Philips, The Netherlands) operated at 120 kV.

The nature of another experiment: Binding analysis via QCM. Particulars: for Kd: binding to HAp, read-out: KD (dissociation constant); for binding affinity to HAp (in words): compared with ADP1, ADP2, ADP4, ADP7. The protocol: Calcium phosphate coated QCM electrodes were purchased commercially. (Q-Sense, Sweden) The diameter of the crystals and electrodes were 8.8 mm and 5.0 mm, respectively. […] A 12 V DC current was applied to the oscillator circuit to drive the crystal, and the frequency was measured with a Hewlett-Packard 53131A frequency counter sampling at 225 Hz (Universal Counter, Agilent Technologies). After the crystal was mounted in the cell, they were cleaned and dried with high-purity nitrogen gas and used immediately. To establish a stable baseline, a sufficient amount of buffer solution was introduced into the cell before adding the peptide. The frequency change of the crystal in pure buffer solution was recorded for 30 to 60 minutes. After this, the desired amount of ADPs was introduced into the cell and the frequency change was recorded continuously.
The dissociation constants (KD) of the peptides were determined. The KD is an equilibrium constant that represents the concentration necessary to achieve 50% surface coverage. […] (FIG. 2a, Table 1)

Experiment [2] can be described thus: In vitro solution biomineralization, alkaline phosphatase based mineralization model. The format is biochemical. Particulars: for mineralization trend (kinetics): 0.4 mM peptide, 24 mM Ca2+, 14.4 mM β-GP, 37° C., initial 90 minutes; for available free Ca2+ consumed: at the end of the 90 minutes. The protocol:
An alkaline phosphatase (AP) based mineralization model was used as described before to investigate the mineralization behaviors of the peptides (22) (see Supporting Information for details). […]
as §1

The nature of experiment [3]: Ex vivo re-mineralization of tooth root. Also noted: species or system human. The method, then:
The cementum-root stock blocks were prepared from single rooted, extracted adult teeth collected at the University of Washington Dental School clinics. No individual identifiers were used and the use of such material complied with the Institutional Review Board guidelines. The teeth were kept in 70% ethanol solution at 4° C. until the specimens were prepared. Cylindrical blocks of 4 mm diameter were cut from the acellular cementum, close to the cementoenamel junction using a trephine bur. The teeth were kept immersed in 70% ethanol-phosphate buffered saline (PBS) during the cutting to prevent heat damage due to friction. The cut cylindrical blocks were cleaned of contaminating material using PBS and demineralized with 35% phosphoric acid gel for 10 seconds. The specimens were stored in 70% ethanol-PBS solution at 4° C. until used.
Prior to coating the specimens with the peptide, the previously cut cylindrical blocks were rehydrated and equilibrated for 2 hours in 24 mM Tris-HCl buffer, pH 7.4. The lyophilized ADP was dissolved in 24 mM Tris-HCl buffer, pH 7.4 to a final concentration of 0.4 mM. A 50 μl drop of the ADP solution was dropped on top of the specimens and left on the specimen for 10 minutes at room temperature in a water saturated chamber to prevent evaporation. Control specimens were identically prepared only by dropping 50 μl of buffer alone. At the end of 10 minutes, the samples were rinsed twice with deionized water. Fluorescent microscopy analysis was performed with fluorescein isothiocyanate-labeled ADP (fADP).
Solutions of 9.6 mM CaCl2 and 5.6 mM (PO4)^−3, a mixture of NaH2PO4—H2O and Na2HPO4-7H20, were prepared in 24 mM Tris-HCl buffer, pH 7.4. The peptide coated and non-coated control specimens were placed in 300 μl of Ca^+2 solution and an equal volume of (PO4)^−3 solution was added to achieve a final concentration of 4.8 mM of Ca^+2 and 2.8 mM of (PO4)^−3. The specimens were incubated in the mineralization solution for 2 hours at 37° C. in a water saturated atmosphere, removed from the mineralization solution and rinsed with 24 mM Tris-HCl buffer, pH 7.4. […]

The Kd is the concentration at which binding is half-saturated. Regarding HPPSHTLQPHHHLPVV [ADP4], in experiment [1], the mineral morphology result is on record as “spherulitic particles”, the “crystal phase of the mineral formed (XRD)” value (from here on “crystal phase”) is listed as “none of the other strong binders” and the “amount of radiating crystalline blade-like particles emanating from the spherulites” value (shortened to “amount”) is “slightly higher”. In “Binding analysis via QCM”, the Kd turned out to be 1.43 µM.
As for “HPPSHTLQPHHHLPVVPAQQPVAPQQPMMPVPGHHSMTPTQH [ADP7]”, the “mineralization trend (kinetics)” value in experiment [2] is recorded as “slow mineralization trend”. In addition, in experiment [1], the mineral morphology result is “Needle like nano-crystals” and the “crystal phase” value was “crystalline HAp; also recorded: HA precipitation was only observed in ADP7; also recorded: characteristic peaks belonging to the HAp crystal structure”. The Kd in the experiment “Binding analysis via QCM” worked out at 1.15 µM.
As for HTLQPHHHLPVV [ADP1], in experiment [1], the mineral morphology result is given as “spherulitic particles”, the “crystal phase” value is listed as “none of the other strong binders” and the “amount” value is recorded as “slightly higher”. The Kd in “Binding analysis via QCM” stood at 1.4 µM.
Regarding LPPLFSMPLSPILPELPLEAWPAT [ADP6], the mineral morphology entry in experiment [1] is reported as “spherulitic particles”. In addition, in the experiment “Binding analysis via QCM”, the Kd was found to be 6.25 µM and the “binding affinity to HAp (in words)” value was “lower”.
For PAQQPVAPQQPMMP [ADP8], in experiment [1], the mineral morphology result is “spherulitic particles”. For the same molecule, in “Binding analysis via QCM”, the dissociation constant (Kd) was 3.14 µM and the “binding affinity to HAp (in words)” value is “lower”.
For PGYINLSYEKSHSQAINTDRTA [ADP5], in experiment [2], the “mineralization trend (kinetics)” value is “fast mineralization trend” and the “available free Ca2+ consumed” value is listed as “more than half”. Besides, the mineral morphology entry in experiment [1] was “much smaller spherulites”. Further, the Ca/P ratio in experiment [3] (EDX spectra of the cementomimetic layer) is recorded as 1.67. The “thickness of mineral layer” value in experiment [3] (SEM and TEM cross-section) was 10-15 μm. For the same molecule, the “elemental composition by EDS” value in experiment [3] (peptide coated samples after 2 hours) was “substantial Ca and P peaks”. In addition, in the experiment “Binding analysis via QCM”, the Kd amounted to 50 µM and the “binding affinity to HAp (in words)” value is “lower”.
Take VPGHHSMTPTQH [ADP2]: in experiment [1], the mineral morphology result is listed as “spherulitic particles”, the “crystal phase” value is listed as “none of the other strong binders” and the “amount” value is recorded as “slightly higher”. In the experiment “Binding analysis via QCM”, the equilibrium dissociation constant (Kd) was 1.61 µM.
WPATDKTKREEVD [ADP3]: the mineral morphology entry in experiment [1] is recorded as “spherulitic particles”. Further, in the experiment “Binding analysis via QCM”, the dissociation constant (Kd) turned out to be 6.4 µM and the “binding affinity to HAp (in words)” value is reported as “lower”.

B1: rM180: recombinant mouse 180 amino acid long amelogenin (protein, UniProt P63277 17-210, looked up)
Amelogenin, X isoform: MPLPPHPGSPGYINLSYEKSHSQAINTDRTALVLTPLKWYQSMIRQPYPSYGYEPMGGWLHHQIIPVLSQQHPPSHTLQPHHHLPVVPAQQPVAPQQPMMPVPGHHSMTPTQHHQPNIPPSAQQPFQQPFQPQAIPPQSHQPMQPQSPLHPMQPLAPQPPLPPLFSMQPLSPILPELPLEAWPATDKTKREEVD
Regarding B1, in experiment [2], the “mineralization trend (kinetics)” value is reported as “fast mineralization trend” and the “available free Ca2+ consumed” value was “more than half”. Besides, in experiment [1], the mineral morphology result is “Needle like nano-crystals” and the “crystal phase” value is on record as “crystalline HAp”. Also, the “crystal phase” value in experiment [1] (listed as amelogenin) was “characteristic peaks belonging to the HAp crystal structure”.

Source of the values: patent US9290555B2, “Reagents and methods for treating dental disease” (University of Washington Through its Center for …, priority 2011, dated 2016).
